These results are taken from ChEMBL document CHEMBL2380240, “Discovery, synthesis, selectivity modulation and DMPK characterization of 5-azaspiro[2.4]heptanes as potent orexin receptor antagonists” (Bioorg Med Chem Lett, 2013).

In data set [1] the target is T1, Cytochrome P450 3A4 (Homo sapiens, UniProt P08684). Kind of data set: Time dependent inhibition of human recombinant CYP3A4 using BFC as substrate incubated for 30 mins prior to substrate addition. As to conditions: recombinant enzyme, 0.5 h; call rule not given here. The class given is ADME.
The target in data set [2] is T2, CYP2C19 (Homo sapiens, UniProt P33261). Kind of data set: Inhibition of human recombinant CYP2C19 at 3 uM by fluorimetric assay. In kind it is ADME.
For data set [3], the target named is T3, CYP2C9 (Homo sapiens, UniProt P11712). Kind of data set: Inhibition of human recombinant CYP2C9 at 3 uM by fluorimetric assay. In kind it is ADME.
The target in data set [4] is T4, CYP1A2 (Homo sapiens, UniProt P05177).
T4 sequence (P05177 whole entry): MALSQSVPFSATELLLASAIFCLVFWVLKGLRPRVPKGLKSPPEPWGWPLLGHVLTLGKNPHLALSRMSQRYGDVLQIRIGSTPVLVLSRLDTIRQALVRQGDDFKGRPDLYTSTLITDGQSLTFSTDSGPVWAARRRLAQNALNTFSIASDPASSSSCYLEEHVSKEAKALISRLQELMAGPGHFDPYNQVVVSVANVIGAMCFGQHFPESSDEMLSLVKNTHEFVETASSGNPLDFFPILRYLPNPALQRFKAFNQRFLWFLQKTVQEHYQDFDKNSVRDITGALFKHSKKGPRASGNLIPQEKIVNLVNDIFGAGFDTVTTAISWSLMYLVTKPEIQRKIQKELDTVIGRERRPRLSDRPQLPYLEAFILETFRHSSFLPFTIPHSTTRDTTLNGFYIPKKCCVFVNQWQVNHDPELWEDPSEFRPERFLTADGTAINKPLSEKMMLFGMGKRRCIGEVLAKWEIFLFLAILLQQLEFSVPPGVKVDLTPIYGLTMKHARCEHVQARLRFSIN
Kind of data set: Inhibition of human recombinant CYP1A2 at 3 uM by fluorimetric assay. The class given is ADME.

Data set [5] has as its target T5, CYP3A4 (Homo sapiens, UniProt P08684). In words: Inhibition of human recombinant CYP3A4 using BFC as substrate at 3 uM by fluorimetric assay. In kind it is ADME. The settings on record: recombinant CYP3A4, probe BFC.
The target of data set [6] is T6, CYP2D6 (Homo sapiens, UniProt P10635). In words: Inhibition of human recombinant CYP2D6 at 3 uM by fluorimetric assay. In kind it is ADME.
Data set [7] concerns the target T5, CYP3A4. In words: Inhibition of human recombinant CYP3A4 using DBF as substrate at 3 uM by fluorimetric assay. In kind it is ADME. The settings on record: recombinant CYP3A4, probe DBF.
Data set [8] concerns the target T1, Cytochrome P450 3A4. Kind of data set: Inhibition of human recombinant CYP3A4 using BFC as substrate by fluorimetric assay. In kind it is ADME.
Data set [9] in a line: Ratio of drug uptake from rat brain to plasma at 1 mg/kg, iv after 1 hr. The class given is ADME, organism-based. Further details: dose 1 mg/kg, route intravenous. As to conditions: read-out: BPR.
Data set [10] in a line: Volume of distribution at steady state in rat. The class given is ADME, organism-based. The settings on record: in vivo, read-out: Vdss.
Data set [11] can be described thus: Plasma clearance in rat at 1 mg/kg, iv. The class given is ADME, organism-based. On the set-up: dose 1 mg/kg, route intravenous.
Data set [12] can be described thus: Oral bioavailability in rat at 1 mg/kg. The class given is ADME, organism-based. As to conditions: in vivo.
For data set [13], the target named is T7, Orexin/Hypocretin receptor type 1 (Homo sapiens) (UniProt O43613).
T7 sequence (whole entry): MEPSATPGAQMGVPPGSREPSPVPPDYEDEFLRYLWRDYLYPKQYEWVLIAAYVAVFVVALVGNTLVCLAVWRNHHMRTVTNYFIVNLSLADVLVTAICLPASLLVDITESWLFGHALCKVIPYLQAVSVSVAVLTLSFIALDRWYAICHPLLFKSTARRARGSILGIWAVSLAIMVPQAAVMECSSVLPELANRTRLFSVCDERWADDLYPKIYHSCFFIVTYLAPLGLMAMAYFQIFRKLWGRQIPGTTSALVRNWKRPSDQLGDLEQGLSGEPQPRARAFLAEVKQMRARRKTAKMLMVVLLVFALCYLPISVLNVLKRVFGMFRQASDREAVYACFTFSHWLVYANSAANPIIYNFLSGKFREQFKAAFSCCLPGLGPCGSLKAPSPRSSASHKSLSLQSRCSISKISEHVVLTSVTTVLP
Kind of data set: Antagonist activity at human recombinant OX1 receptor expressed in CHO cells assessed as OXA-stimulated intracellular calcium mobilization by FLIPR assay. The class given is functional, cell-based. (Calcium assays in cells follow changes in intracellular calcium, usually with a dye or a luminescent sensor.)

Data set [14] addresses T8, Orexin receptor type 2 (Homo sapiens) (UniProt O43614).
T8 sequence (whole entry): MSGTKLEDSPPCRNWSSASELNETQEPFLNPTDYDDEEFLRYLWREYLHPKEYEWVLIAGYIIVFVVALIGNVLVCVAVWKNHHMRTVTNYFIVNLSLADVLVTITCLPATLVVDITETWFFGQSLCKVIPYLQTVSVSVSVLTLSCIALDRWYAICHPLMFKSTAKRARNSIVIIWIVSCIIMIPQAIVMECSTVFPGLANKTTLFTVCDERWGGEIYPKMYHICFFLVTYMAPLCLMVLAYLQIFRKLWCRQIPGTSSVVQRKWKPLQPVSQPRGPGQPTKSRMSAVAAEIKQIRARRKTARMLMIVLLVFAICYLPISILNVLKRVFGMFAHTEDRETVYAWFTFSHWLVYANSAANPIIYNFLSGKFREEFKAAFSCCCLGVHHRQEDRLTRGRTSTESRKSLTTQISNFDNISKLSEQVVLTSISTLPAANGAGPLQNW
In words: Antagonist activity at human recombinant OX2 receptor expressed in HEK293 cells assessed as OXB-stimulated intracellular calcium mobilization by FLIPR assay. In kind it is functional, cell-based.

Data set [15] deals with T3, CYP2C9. Kind of data set: Inhibition of human recombinant CYP2C9 at 1 uM by fluorimetric assay. In kind it is ADME.
For data set [16], the target named is T2, CYP2C19. Kind of data set: Inhibition of human recombinant CYP2C19 at 1 uM by fluorimetric assay. The class given is ADME.
The target of data set [17] is T4, CYP1A2. In words: Inhibition of human recombinant CYP1A2 at 1 uM by fluorimetric assay. In kind it is ADME.
In data set [18] the target is T6, CYP2D6. Kind of data set: Inhibition of human recombinant CYP2D6 at 1 uM by fluorimetric assay. The class given is ADME.
Data set [19] has as its target T5, CYP3A4. In words: Inhibition of human recombinant CYP3A4 using BFC as substrate at 1 uM by fluorimetric assay. In kind it is ADME. As to conditions: recombinant CYP3A4, probe BFC.
In data set [20] the target is T5, CYP3A4. Kind of data set: Inhibition of human recombinant CYP3A4 using DBF as substrate at 1 uM by fluorimetric assay. As to conditions: recombinant CYP3A4, probe DBF. In kind it is ADME.
Data set [21] is filed under the species Homo sapiens. In words: Selectivity ratio for human recombinant OX1 to human recombinant OX2.

Bounds are passed on as bounds.

T5 sequence (P08684 whole entry): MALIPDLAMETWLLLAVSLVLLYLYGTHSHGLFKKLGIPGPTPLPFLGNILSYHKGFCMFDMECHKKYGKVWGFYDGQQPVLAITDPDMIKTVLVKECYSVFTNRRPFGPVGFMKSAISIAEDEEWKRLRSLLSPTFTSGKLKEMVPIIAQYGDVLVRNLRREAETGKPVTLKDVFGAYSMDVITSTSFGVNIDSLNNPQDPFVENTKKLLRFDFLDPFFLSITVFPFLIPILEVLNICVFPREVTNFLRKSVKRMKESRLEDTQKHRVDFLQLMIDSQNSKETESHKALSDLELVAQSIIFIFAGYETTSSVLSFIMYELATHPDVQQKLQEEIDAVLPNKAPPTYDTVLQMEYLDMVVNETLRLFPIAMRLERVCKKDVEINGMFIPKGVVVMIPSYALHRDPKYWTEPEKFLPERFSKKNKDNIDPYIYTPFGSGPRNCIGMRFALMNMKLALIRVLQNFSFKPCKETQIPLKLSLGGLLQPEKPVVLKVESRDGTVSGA
T1 sequence (P08684 whole entry): as above
T2 sequence (P33261 whole entry): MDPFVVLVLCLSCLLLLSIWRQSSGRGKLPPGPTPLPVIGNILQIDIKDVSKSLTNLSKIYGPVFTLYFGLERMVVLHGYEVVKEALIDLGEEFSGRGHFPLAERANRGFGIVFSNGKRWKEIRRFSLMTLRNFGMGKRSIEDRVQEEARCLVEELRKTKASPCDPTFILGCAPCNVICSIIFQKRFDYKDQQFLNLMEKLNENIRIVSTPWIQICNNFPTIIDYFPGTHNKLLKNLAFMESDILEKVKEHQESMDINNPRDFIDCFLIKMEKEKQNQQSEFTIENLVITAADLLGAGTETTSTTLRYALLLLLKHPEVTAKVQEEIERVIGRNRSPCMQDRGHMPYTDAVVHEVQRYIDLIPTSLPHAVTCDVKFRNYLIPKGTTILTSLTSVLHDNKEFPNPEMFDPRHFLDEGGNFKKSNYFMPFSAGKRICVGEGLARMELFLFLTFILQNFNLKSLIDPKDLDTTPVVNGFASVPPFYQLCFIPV
T6 sequence (P10635 whole entry): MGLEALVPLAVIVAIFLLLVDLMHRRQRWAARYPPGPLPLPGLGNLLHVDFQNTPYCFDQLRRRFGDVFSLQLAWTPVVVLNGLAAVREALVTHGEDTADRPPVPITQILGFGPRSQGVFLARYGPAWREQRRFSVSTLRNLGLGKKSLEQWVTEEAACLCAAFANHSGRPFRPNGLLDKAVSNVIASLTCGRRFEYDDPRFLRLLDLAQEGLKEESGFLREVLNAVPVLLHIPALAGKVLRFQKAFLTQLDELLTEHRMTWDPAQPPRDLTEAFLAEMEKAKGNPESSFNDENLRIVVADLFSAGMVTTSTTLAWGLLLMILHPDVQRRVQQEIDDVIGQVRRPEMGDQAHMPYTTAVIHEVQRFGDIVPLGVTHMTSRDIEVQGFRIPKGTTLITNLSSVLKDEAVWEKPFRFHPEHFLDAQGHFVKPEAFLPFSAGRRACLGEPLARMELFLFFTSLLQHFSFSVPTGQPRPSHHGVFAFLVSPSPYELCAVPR
T3 sequence (P11712 whole entry): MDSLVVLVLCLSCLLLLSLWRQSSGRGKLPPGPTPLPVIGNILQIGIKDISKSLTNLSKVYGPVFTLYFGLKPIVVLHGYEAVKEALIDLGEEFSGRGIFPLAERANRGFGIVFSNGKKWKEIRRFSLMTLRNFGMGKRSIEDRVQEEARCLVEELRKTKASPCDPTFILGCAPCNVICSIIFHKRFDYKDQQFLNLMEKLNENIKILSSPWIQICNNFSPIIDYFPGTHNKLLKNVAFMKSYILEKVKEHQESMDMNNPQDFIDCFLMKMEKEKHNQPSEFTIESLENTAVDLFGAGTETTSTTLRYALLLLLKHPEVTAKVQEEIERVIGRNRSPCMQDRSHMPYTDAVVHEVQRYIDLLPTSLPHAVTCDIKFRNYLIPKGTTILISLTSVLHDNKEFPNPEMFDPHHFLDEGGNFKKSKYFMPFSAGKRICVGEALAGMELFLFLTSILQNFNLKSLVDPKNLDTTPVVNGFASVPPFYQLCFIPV

By inhibition is commonly meant the share of the control response that was lost under treatment. As usually defined, the IC50 is the concentration that gives 50% inhibition. In general, clearance refers to the volume of plasma or blood freed of the substance per unit of time. Read a high clearance as a high capacity for elimination. Usually bioavailability stands for the share of a dose that reaches the circulation, judged against a reference dose that is usually intravenous. A lower bioavailability goes with poor availability. As usually defined, the pKb is the Kb on a negative log10 scale, so that one unit is a factor of ten. On to `Cc1ccc(-c2ccccc2)c(C(=O)N2CC3(CC3)C[C@H]2CNc2ccc(C(F)(F)F)cn2)n1`, for which the “inhibition (INH)” value in data set [1] was “Not Active”. Also, the inhibition at 3 µM in data set [2], in data set [3], in data set [4], in [5], in data set [6] and in data set [7] was under 20% throughout. Further, the IC50 in data set [8] was determined as 64 µM. In addition, the Kp at 1 h in [9] was 0.4. In data set [10], the Vd amounted to 4.4 L/kg. In data set [11], this molecule yielded a clearance of 61.3 mL/min/kg. In [12], the bioavailability came out at 11%. Further, the pKb was 8.6 in data set [13] and 8 in data set [14].
Consider `Cc1cc(C(F)(F)F)cc(NC[C@@H]2CC3(CC3)CN2C(=O)c2nc(C)sc2-c2ccccc2)n1`, for which the inhibition at 1 µM in data set [15], in [16], in data set [17], in [18], in [19] and in data set [20] was under 69% throughout. The pKb in data set [13] turned out to be 7.8; in data set [14], 8.6.
Consider `Cc1ccc(-n2nccn2)c(C(=O)N2CC3(CC3)C[C@H]2CNc2cccc(C)n2)c1`, for which the inhibition at 1 µM in [15], in data set [16], in data set [17], in data set [18], in data set [19] and in data set [20] was under 34% each time. Further, the Kp at 1 h in [9] worked out at 0.2. Besides, the Vd in [10] was 0.48 L/kg. In addition, in data set [11], the clearance stood at 33.1 mL/min/kg. Besides, the pKb in data set [13] is 7.1; in data set [14], under 5.
Regarding `Cc1ccc(-c2ncccn2)c(C(=O)N2CC3(CC3)C[C@H]2CNc2cc(C(F)(F)F)ccn2)n1`, in [21], the Selectivity ratio is over 100. In addition, the inhibition at 1 µM in data set [15], in data set [16], in data set [17], in data set [18], in data set [19] and in data set [20] was under 39% each time. The pKb in data set [13] stood at 6; in data set [14], 8.1.
Consider `Cc1ccc(-c2ncccn2)c(C(=O)N2CC3(CC3)C[C@H]2CNc2ccc(Cl)cn2)c1`, for which the inhibition at 1 µM in data set [15], in data set [16], in [17], in data set [18], in [19] and in [20] was under 53% each time. The Kp at 1 h in data set [9] worked out at 0.03. In addition, the Vd in [10] was 6.21 L/kg. In addition, in data set [11], the clearance was 11 mL/min/kg. This molecule gave a bioavailability in data set [12] of 40%. In addition, the pKb in [13] is 8.2; in data set [14], under 5.
Take `Cc1ccc(-c2ncccn2)c(C(=O)N2CC3(CC3)C[C@H]2CNc2ccc(C(F)(F)F)cn2)n1`: in [1], the “inhibition (INH)” value is “Active”. For the same molecule, the inhibition at 3 µM in [2], in [3], in data set [4], in data set [5], in [6] and in data set [7] was under 28% each time. Further, the IC50 in data set [8] is over 100 µM. The Kp at 1 h in data set [9] was 0.5. Moreover, the Vd in data set [10] stood at 2 L/kg. Moreover, the clearance in [11] turned out to be 47.5 mL/min/kg. In addition, the bioavailability in data set [12] turned out to be 33%. Besides, the pKb in [13] is 8.4; in data set [14], 7.5.
For `Cc1nc(C(=O)N2CC3(CC3)C[C@H]2CNc2ccc(C(F)(F)F)cn2)c(-c2ccccc2)s1`, in data set [1], the “inhibition (INH)” value is recorded as “Active”. Further, the inhibition at 3 µM in data set [2], in data set [3], in data set [4], in data set [5], in data set [6] and in data set [7] was under 20% each time. The IC50 in data set [8] was over 100 µM. For the same molecule, the inhibition at 1 µM in data set [15], in data set [16], in data set [17], in [18], in [19] and in data set [20] was under 20% each time. Also, the Kp at 1 h in data set [9] came out at 0.6. In data set [10], the Vd worked out at 3 L/kg. In [11], the clearance stood at 55.2 mL/min/kg. Besides, the bioavailability in data set [12] is 20%. For the same molecule, the pKb turned out to be 8.4 in [13] and 7.7 in [14].
Take `Cc1ccc(-c2ncccn2)c(C(=O)N2CC3(CC3)C[C@H]2CNc2cc(C(F)(F)F)ccn2)c1`: the inhibition at 1 µM in data set [15], in [16], in data set [17], in data set [18], in data set [19] and in data set [20] was under 72% throughout. For the same molecule, the values for the pKb in [13] and in [14] were 7.3 and 7.8, respectively.
Turning to `Cc1cc(C)nc(NC[C@@H]2CC3(CC3)CN2C(=O)c2nc(C)sc2-c2ccccc2)n1`, the “inhibition (INH)” value in data set [1] was “Active”. Further, the IC50 in data set [8] was 7.9 µM. For the same molecule, the inhibition at 1 µM in data set [15], in data set [16], in data set [17], in [18], in data set [19] and in data set [20] was under 16% throughout. The Kp at 1 h in data set [9] is 0.1. Moreover, the Vd in [10] turned out to be 0.7 L/kg. Also, the clearance in [11] amounted to 41.4 mL/min/kg. For the same molecule, the values for the pKb in data set [13] and in [14] were 7.5 and 8.6, respectively.
